Measurements published in patent publication US12673947B2 (Cytosinlab Therapeutics Co., Ltd., priority 2020, dated 2026).
pIC50: −log10 of the molar value.

Legend:
[1] = biological target: T1, FLT3 (Homo sapiens, UniProt P36888); assay: FLT3 kinase in vitro inhibitory activity experiment (Caliper mobility shift, conversion rate); type: biochemical; settings: IC50 class, read-out: Enzyme activity FLT3
T1 construct: purchased Carna 08-145
T1 sequence (P36888 27-993): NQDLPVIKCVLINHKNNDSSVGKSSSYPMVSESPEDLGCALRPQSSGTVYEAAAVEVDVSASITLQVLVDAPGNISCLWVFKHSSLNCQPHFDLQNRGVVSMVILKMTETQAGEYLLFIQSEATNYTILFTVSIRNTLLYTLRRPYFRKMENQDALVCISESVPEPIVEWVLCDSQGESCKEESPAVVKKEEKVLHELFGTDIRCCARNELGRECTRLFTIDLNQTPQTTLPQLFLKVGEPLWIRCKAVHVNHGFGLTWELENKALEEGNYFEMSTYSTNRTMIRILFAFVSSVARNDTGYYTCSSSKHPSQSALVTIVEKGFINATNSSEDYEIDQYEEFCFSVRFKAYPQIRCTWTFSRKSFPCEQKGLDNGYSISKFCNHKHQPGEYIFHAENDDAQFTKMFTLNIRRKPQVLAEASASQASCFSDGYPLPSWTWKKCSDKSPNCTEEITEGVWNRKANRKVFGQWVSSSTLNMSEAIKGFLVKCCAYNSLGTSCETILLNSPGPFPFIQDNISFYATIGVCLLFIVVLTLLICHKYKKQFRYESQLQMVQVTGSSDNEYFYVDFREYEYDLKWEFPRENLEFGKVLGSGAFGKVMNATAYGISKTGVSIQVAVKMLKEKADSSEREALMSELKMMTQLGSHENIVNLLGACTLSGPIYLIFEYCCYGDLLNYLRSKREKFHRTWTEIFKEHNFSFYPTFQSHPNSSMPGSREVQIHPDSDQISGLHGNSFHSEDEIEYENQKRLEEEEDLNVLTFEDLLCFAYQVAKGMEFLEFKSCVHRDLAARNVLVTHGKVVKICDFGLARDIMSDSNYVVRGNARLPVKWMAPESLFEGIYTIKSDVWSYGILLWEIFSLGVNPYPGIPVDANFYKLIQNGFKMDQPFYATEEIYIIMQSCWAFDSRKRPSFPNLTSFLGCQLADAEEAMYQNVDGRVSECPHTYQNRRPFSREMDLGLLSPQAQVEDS
In short: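 FLT3 was pre-incubated with compound for 10 min at room temperature, then the reaction was started with ATP plus Kinase substrate 2 and run 30 min at room temperature before stop solution. Substrate conversion was read by Caliper mobility shift.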

[2] = test system: MV4;11 cells; assay: MV4;11 in vitro inhibition of proliferation assay (CellTiter-Glo, 72 hours); type: cell-based; settings: Homo sapiens, MV4-11, 72 h, IC50 class, read-out: Inhibitory activity of cell proliferation MV4;11
In short: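 MV4;11 cells in IMDM/10% FBS, 2000 per well, were exposed to 9-point 3-fold DMSO dilutions from 10 uM (final DMSO 0.3%) in triplicate for 72 hours at 37° C., 5% CO2. Viability was read by CellTiter-Glo luminescence, and IC50 came from a four-parameter fit of inhibition.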

Row | pIC50 [1] | pIC50 [2] | Structure (SMILES)
1 | ≥ 8.00 | 7.00 to 8.00 | CCc1nc2c(N)ncc(-c3cnn(-c4ccc(C(C)(C)C)cc4)c3)c2nc1N[C@@H]1CC[C@H](O)C1 [Compound 351]
2 | ≥ 8.00 | 7.00 to 8.00 | CCc1nc2c(N)ncc(-c3cnn(-c4nccc(C(C)(C)O)n4)c3)c2nc1N[C@@H]1CC[C@H](O)C1 [Compound 352]
3 | ≥ 8.00 | 7.00 to 8.00 | CCc1nc2c(N)ncc(-c3cnn(-c4ccc(C#N)c(F)c4)c3)c2nc1N[C@@H]1CC[C@H](O)C1 [Compound 353]
4 | ≥ 8.00 | 7.00 to 8.00 | CCc1nc2c(N)ncc(-c3cnn(-c4ccc(C(C)(C)O)nn4)c3)c2nc1N[C@@H]1CC[C@H](O)C1 [Compound 354]
5 | ≥ 8.00 | ≥ 8.00 | CCc1nc2c(N)ncc(-c3cnn(-c4ccc(C(C)(C)O)c(F)c4)c3)c2nc1N[C@@H]1CC[C@H](O)C1 [Compound 355]
6 | ≥ 8.00 | 7.00 to 8.00 | CCc1nc2c(N)ncc(-c3cnn(-c4cnc(C(C)(C)O)nc4)c3)c2nc1N[C@@H]1CC[C@@H](O)C1 [Compound 356]
7 | ≥ 8.00 | ≥ 8.00 | CCc1nc2c(N)ncc(-c3cnn(-c4ccc5c(c4)CCO5)c3)c2nc1N[C@@H]1CC[C@H](O)C1 [Compound 357]
8 | 7.00 to 8.00 | 6.30 to 7.00 | CCc1nc2c(N)ncc(-c3ccc(NCCNC(=O)[C@H](C)N(C)C(=O)/C=C/CN(C)C)c(OC)c3)c2nc1NC1CCOCC1 [Compound 358, (S,E)-N-(1-((2-((4-(5-amino-3-ethyl-2-((tetrahydro-2H-pyran-4-yl)amino)pyridino[3,4b]pyrazine-8-yl)-2-methoxyphenyl)amino)ethyl)amino)-1-oxopropane-2-yl)-4-(dimethylamino)-N-methylbutyl-2-enamide]
